According to ChEMBL document CHEMBL1157114, “Synthesis and structure-activity relationships of a series of (1H-pyrazol-4-yl)acetamide antagonists of the P2X7 receptor” (Bioorg Med Chem Lett, 2010):
Converted amounts (≈) assume the structure as drawn.

Columns and labels:
[1] = target: T1, P2X purinoceptor 7 (Homo sapiens) (UniProt Q99572); assay: Inhibition of human P2X7 receptor assessed as inhibition of ethidium bromide accumulation relative to control
T1 sequence (whole entry): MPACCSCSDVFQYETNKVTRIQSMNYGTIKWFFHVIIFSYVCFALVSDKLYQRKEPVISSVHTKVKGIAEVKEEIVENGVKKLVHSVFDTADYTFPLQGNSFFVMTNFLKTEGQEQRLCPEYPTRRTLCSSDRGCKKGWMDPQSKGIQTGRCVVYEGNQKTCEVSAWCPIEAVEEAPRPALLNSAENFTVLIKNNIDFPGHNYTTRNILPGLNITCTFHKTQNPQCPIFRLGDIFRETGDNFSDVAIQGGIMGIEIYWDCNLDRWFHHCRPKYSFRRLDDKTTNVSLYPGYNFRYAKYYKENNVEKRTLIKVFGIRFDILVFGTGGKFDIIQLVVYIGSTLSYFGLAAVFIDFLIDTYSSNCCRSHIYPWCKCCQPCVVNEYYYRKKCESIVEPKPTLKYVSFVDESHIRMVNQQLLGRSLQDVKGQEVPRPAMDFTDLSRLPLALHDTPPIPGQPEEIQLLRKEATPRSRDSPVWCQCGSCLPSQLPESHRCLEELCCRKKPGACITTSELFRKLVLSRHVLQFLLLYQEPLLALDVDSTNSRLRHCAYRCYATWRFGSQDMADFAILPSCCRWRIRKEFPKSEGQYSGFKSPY

P2X purinoceptor 7 [2] = target: T2, P2X purinoceptor 7 (Homo sapiens, UniProt Q99572); assay: Inhibition of human P2X7 receptor assessed as inhibition of ethidium bromide accumulation
T2 sequence (Q99572 whole entry): T1 sequence (whole entry)

[3] = Cmax in rat blood at 3 mg/kg, po; assay type: ADME, organism-based; parameters: dose 3 mg/kg, route oral
Rattus norvegicus = assay: Dose normalized AUC in rat blood at 3 mg/kg, po; assay type: ADME, organism-based; parameters: dose 3 mg/kg, route oral; conditions: in vivo
[4] = Tmax in rat blood at 3 mg/kg, po; assay type: ADME, organism-based; parameters: dose 3 mg/kg, route oral
[5] = Volume of distribution at steady state in rat blood at 1 mg/kg, iv; assay type: ADME, organism-based; parameters: dose 1 mg/kg, route intravenous; conditions: read-out: Vdss
[6] = Half life in rat blood at 1 mg/kg, iv; assay type: ADME, organism-based; parameters: dose 1 mg/kg, route intravenous
[7] = Clearance in rat blood at 1 mg/kg, iv; assay type: ADME, organism-based; parameters: dose 1 mg/kg, route intravenous
P2X purinoceptor 7 [8] = target: T3, P2X purinoceptor 7 (Rattus norvegicus, UniProt Q64663); assay: Inhibition of rat P2X7 receptor assessed as inhibition of ethidium bromide accumulation
T3 sequence (Q64663 whole entry): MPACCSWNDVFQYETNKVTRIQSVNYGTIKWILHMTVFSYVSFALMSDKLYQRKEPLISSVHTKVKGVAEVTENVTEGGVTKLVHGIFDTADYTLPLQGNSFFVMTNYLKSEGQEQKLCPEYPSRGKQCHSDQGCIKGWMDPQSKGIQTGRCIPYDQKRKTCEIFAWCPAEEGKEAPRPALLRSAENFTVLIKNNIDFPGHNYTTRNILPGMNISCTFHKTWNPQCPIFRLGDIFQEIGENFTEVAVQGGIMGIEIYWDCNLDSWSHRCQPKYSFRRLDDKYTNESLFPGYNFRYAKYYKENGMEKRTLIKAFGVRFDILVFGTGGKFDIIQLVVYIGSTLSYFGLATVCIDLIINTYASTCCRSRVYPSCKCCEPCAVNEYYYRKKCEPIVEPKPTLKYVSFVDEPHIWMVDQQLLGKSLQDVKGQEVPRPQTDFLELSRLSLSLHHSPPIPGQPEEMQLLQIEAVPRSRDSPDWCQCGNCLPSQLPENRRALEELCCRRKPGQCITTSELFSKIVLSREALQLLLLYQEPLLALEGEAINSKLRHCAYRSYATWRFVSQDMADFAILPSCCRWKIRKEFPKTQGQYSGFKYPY

[9] = Aqueous solubility of the compound; assay type: physicochemical
[10] = Oral bioavailability in rat blood at 3 mg/kg, po; assay type: ADME, organism-based

| SMILES | Imax [1] | IC50 (P2X purinoceptor 7 [2]) | also measured |
| --- | --- | --- | --- |
| Cc1nn(-c2ccccc2)c(C)c1CC(=O)NCc1ccccc1Cl | 100% | 1000 nM | – |
| Cc1oc(-c2ccccc2)nc1CC(=O)NCc1ccc(F)cc1Cl | 100% | > 1000 nM | – |
| Cc1nc(-c2ccccc2)n(C)c1CC(=O)NCc1ccc(F)cc1Cl | 100% | 50.1 nM | – |
| Cc1nn(Cc2cccnc2)c(C)c1CC(=O)NCc1ccc(F)cc1Cl | 100% | 126 nM | – |
| Cc1nn(-c2ccccc2)c(C)c1CNC(=O)Cc1ccc(F)cc1Cl | 100% | > 1000 nM | – |
| Cc1c(CC(=O)NCc2ccc(F)cc2Cl)cnn1-c1ccccc1 | 100% | 158 nM | – |
| Cc1nn(-c2ccc(Cl)cc2)c(C)c1CC(=O)NCc1ccc(F)cc1Cl | 100% | 63.1 nM | – |
| Cc1nn(-c2ccccc2)cc1CC(=O)NCc1ccc(F)cc1Cl | 100% | 158 nM | – |
| COc1ccccc1CNC(=O)Cc1c(C)nn(-c2ccccc2)c1C | 100% | > 1000 nM | – |
| Cc1nn(C)c(C)c1CC(=O)NCc1ccc(F)cc1Cl | 100% | 158 nM | – |
| Cc1sc(-c2ccccc2)nc1CC(=O)NCc1ccc(F)cc1Cl | 100% | > 1000 nM | – |
| Cc1nn(-c2ccccc2)c(C)c1CC(=O)NC(C)(C)c1ccccc1 | 100% | 126 nM | – |
| Cc1nn(CCO)c(C)c1CC(=O)NCc1ccc(F)cc1Cl | 100% | 200 nM | – |
| Cc1nn(-c2ccccc2)c(C)c1CC(=O)NCc1cccc(Cl)c1Cl | 100% | 25.1 nM | – |
| Cc1nn(CCN(C)C)c(C)c1CC(=O)NCc1ccc(F)cc1Cl | 100% | 316 nM | – |
| Cc1nn(-c2ccccc2)c(C)c1CC(=O)NCc1ccccc1 | 100% | > 1000 nM | – |

| SMILES | Imax [1] | IC50 (P2X purinoceptor 7 [2]) | also measured |
| --- | --- | --- | --- |
| Cc1nn(-c2ccccc2)c(C)c1C(=O)NCc1ccc(F)cc1Cl | 100% | > 1000 nM | – |
| Cc1nn(-c2ccccc2)c(C)c1CC(=O)NC1CCCCCC1 | 100% | 158 nM | – |
| Cc1nn(-c2ncccn2)c(C)c1CC(=O)NCc1ccc(F)cc1Cl | 100% | 50.1 nM | – |
| O=C(CN1CC(=O)N(c2ccccc2)C1=O)NCc1ccc(F)cc1Cl | 100% | – | – |
| Cc1nn(-c2ccccc2)c(C)c1CC(=O)N(C)Cc1ccc(F)cc1Cl | 100% | > 1000 nM | – |
| Cc1n[nH]c(C)c1CC(=O)NCc1ccc(F)cc1Cl | 100% | 20 nM | Cmax [3]: 2920 nM; AUC (Rattus norvegicus): 58 kg·min/L; Tmax [4]: 1 h; Vd [5]: 1.6 L/kg; half-life [6]: 1.7 h; clearance [7]: 15 mL/min/kg; IC50 (P2X purinoceptor 7 [8]): 158 nM; solubility [9]: 732 µg/mL (≈ 2480 µM); bioavailability [10]: 90% |
| Cc1nn(-c2ccccc2)c(C)c1CC(=O)NCc1ccc(F)cc1Cl | 100% | 39.8 nM | IC50 (P2X purinoceptor 7 [8]): 100 nM; solubility [9]: 110 µg/mL (≈ 296 µM) |
| Cc1nn(-c2ccc(C(N)=O)cc2)c(C)c1CC(=O)NCc1ccc(F)cc1Cl | 100% | 10 nM | – |
| Cc1cccnc1CNC(=O)Cc1c(C)nn(-c2ccccc2)c1C | 100% | > 1000 nM | – |
| Cc1nc(-c2ccccc2)sc1CC(=O)NCc1ccc(F)cc1Cl | 100% | > 1000 nM | – |
| COc1ccc(-n2nc(C)c(CC(=O)NCc3ccc(F)cc3Cl)c2C)cc1 | 100% | 100 nM | – |
| Cc1nn(-c2ccccc2)c(C)c1CC(=O)NCc1ccc(Cl)cc1Cl | 100% | 79.4 nM | – |
| Cc1nn(Cc2ccccc2)c(C)c1CC(=O)NCc1ccc(F)cc1Cl | 100% | 316 nM | – |
| Cc1nn(-c2ccccc2)c(C)c1NC(=O)NCc1ccc(F)cc1Cl | 100% | 251 nM | – |
| Cc1nn(-c2ccccc2)c(C)c1CC(=O)NCc1cc(Cl)cc(Cl)c1 | 100% | > 631 nM | – |
| Cc1nn(-c2ccccc2)c(C)c1Cc1nnc(Cc2ccc(Cl)cc2Cl)o1 | 100% | 1260 nM | – |
